Measurements reported in patent publication US20240027453A1, “METHOD FOR DETECTION AND QUANTITATIVE MONITORING OF INFECTIONS WITH HERPESVIRUSES” (The Trustees of Princeton University, priority 2020, published 2024).
Read-outs that look alike come from different tables or passages of the source.

System: HCMV
Type: cell-based
Details: for UL47 (P16784) protein, numerical value of heatmap FIG. 6C / UL69 (P16749) protein, numerical value of heatmap FIG. 6C / UL70 (P17149) protein, numerical value of heatmap FIG. 6C / UL83 (P06725) protein, numerical value of heatmap FIG. 6C / UL132 (P69338) protein, numerical value of heatmap FIG. 6C / US15 (P09718) protein, numerical value of heatmap FIG. 6C / sp|P16810|IR12_HCMVA (P16810) protein, numerical value of heatmap FIG. 6C / DUT (P16824) protein, numerical value of heatmap FIG. 6C / TRM3 (P16732) protein, numerical value of heatmap FIG. 6C / TRX1 (P16783) protein, numerical value of heatmap FIG. 6C / TRX2 (P16728) protein, numerical value of heatmap FIG. 6C / UL24 (P16760) protein, numerical value of heatmap FIG. 6C / UL40 (P16780) protein, numerical value of heatmap FIG. 6C / UL49 (P16786) protein, numerical value of heatmap FIG. 6C / sp|P16808|IR10_HCMVA (P16808) protein, numerical value of heatmap FIG. 6C: LL
Experimental: In example herpesvirus PRM assay methods shown herein, cell pellets were lysed in 2% SDS, 100 mM NaCl, 0.5 mM EDTA, 50 mM Tris, pH 8.2, and 50 μg of protein was reduced and alkylated with 25 mM TCEP and 50 mM CAM respectively for 20 min at 70° C. Proteins were then precipitated via methanol chloroform precipitation (Wessel & Flugg, Anal Biochem. 138(1):141-143, 1984), resuspended in 50 mM HEPES, pH 8.2 and digested overnight with trypsin (50:1 protein:enzyme w/w ratio). Digested peptides were desalted by SDB-RPS StageTip as previously described (Lum et al., Cell Syst., 7(6):[…], 2018; Greco et al., Methods Mol Biol 1410:39-63, 2016; Federspiel & Cristea, Methods Mol Biol., 1977:115-143, 2019).
Peptides (1.0 μg on column) were analyzed by LC-MS/MS using a Dionex Ultimate 3000 UHPLC coupled online to an EASYSpray ion source and a Q Exactive HF. Peptides were separated on an EASYSpray C18 column (75 μm×25 cm) heated to 50° C. using a linear gradient of 5% B to 32% B over 60 min at a flow rate of 250 nL/min and were ionized at 1.7 kv. Mobile phase A consisted of 0.1% FA in H2O and mobile phase B consisted of 0.1% FA, 2.9% H2O in ACN.
The PRM method was controlled by a peptide inclusion list with retention time windows of 6 min for selected precursor ions.
The PRM assay was developed and analyzed using the open-source software Skyline (Maclean et al., Bioinformatics 26(7):966-968, 2010). Summed area under the curve of 3-4 transitions per peptide was used for quantitation. Targeted peptides were normalized to host protein loading control peptides. Peptide values for each sample were scaled to the average of each peptide across all runs. The average of multiple peptides was used as the inferred value for the protein measurement when more than one peptide was quantified (Federspiel et al., PLoS Biol. 17(9):e3000437. Doi: 10.1371/journal.pbio.3000437). PRM quantitation data were graphed using the Python Seaborn and Matplotlib libraries.
MRC5 primary human fibroblasts (HFs) (ATCC CCL-171) were used as the model system for HSV-1 and HCMV infections and were cultured in complete growth medium (DMEM supplemented with 10% fetal bovine serum and 1% penicillin-streptomycin antibiotics) at 37° C. and 5% CO2. iSLK.219 cells harboring latent KSHV (a gift from Dr. Britt Glaunsinger, University of California, Berkeley) were grown in complete growth medium supplemented with 500 μg/ml hygromycin (ThermoFisher Scientific, 10687010) at 37° C. and 5% CO2. All cells were used for experiments within a maximum of 10 passages.
Wild type HSV-1 strain 17+ (a gift from Beate Sodeik, Hannover Medical School, Hannover, Germany) was propagated as previously described (Diner et al., 2015). Briefly, PO stocks were generated by electroporating pBAC-HSV-1 into U-2 OS cells. […] In a similar manner, wild type HCMV strain AD169 was produced from BAC electroporation into HFs and working stocks were propagated by infecting HFs at a low level. In both cases, cell-associated virus was released by sonication, combined with supernatant virus, then concentrated by ultracentrifugation (20,000 rpm, 2 hours, 4° C. with SW28 swinging bucket rotor [Beckman Coulter]) over a 10% ficoll (HSV-1) or 20% sorbitol (HCMV) cushion. Virus stock titers were determined by plaque assay for HSV-1 or tissue culture infectious dose (TCID50) for HCMV and infections were performed at a multiplicity of infection (MOI) of 3.
12 hours prior to virus infection or reactivation, cells were treated with either the small molecule drug or DMSO/PBS control at an equivalent volume. […] For infection cycles lasting longer than 24 hours, small molecule drugs were re-added to the cell culture medium every 24 hours. Upon collection, cells were rinsed with PBS, scraped into a microcentrifuge tube, pelleted by centrifugation, and rinsed again with PBS.

Nc1ccn(C[C@@H](CO)OCP(=O)(O)O)c(=O)n1 [CDV, cidofovir]
UL47 (P16784) protein, numerical value of heatmap FIG. 6C (timepoint 48): 0.03052 | UL69 (P16749) protein, numerical value of heatmap FIG. 6C (timepoint 48): 0.2559 | UL70 (P17149) protein, numerical value of heatmap FIG. 6C (timepoint 48): 0.3143 | UL83 (P06725) protein, numerical value of heatmap FIG. 6C (timepoint 48): 0.03791 | UL132 (P69338) protein, numerical value of heatmap FIG. 6C (timepoint 48): 0.1131 | US15 (P09718) protein, numerical value of heatmap FIG. 6C (timepoint 48): 1.201 | sp|P16810|IR12_HCMVA (P16810) protein, numerical value of heatmap FIG. 6C (timepoint 48): 0.2103 | DUT (P16824) protein, numerical value of heatmap FIG. 6C (timepoint 72): 0.6275 | TRM3 (P16732) protein, numerical value of heatmap FIG. 6C (timepoint 72): 0.4913 | TRX1 (P16783) protein, numerical value of heatmap FIG. 6C (timepoint 72): 0.3363 | TRX2 (P16728) protein, numerical value of heatmap FIG. 6C (timepoint 72): 0.3619 | UL24 (P16760) protein, numerical value of heatmap FIG. 6C (timepoint 72): 0.3923 | UL40 (P16780) protein, numerical value of heatmap FIG. 6C (timepoint 72): 0.7811 | UL47 (P16784) protein, numerical value of heatmap FIG. 6C (timepoint 72): 0.4114 | UL49 (P16786) protein, numerical value of heatmap FIG. 6C (timepoint 72): 0.5948 | UL69 (P16749) protein, numerical value of heatmap FIG. 6C (timepoint 72): 0.6759 | UL70 (P17149) protein, numerical value of heatmap FIG. 6C (timepoint 72): 0.743 | UL83 (P06725) protein, numerical value of heatmap FIG. 6C (timepoint 72): 0.4276 | UL132 (P69338) protein, numerical value of heatmap FIG. 6C (timepoint 72): 0.4516 | US15 (P09718) protein, numerical value of heatmap FIG. 6C (timepoint 72): 0.8899 | sp|P16808|IR10_HCMVA (P16808) protein, numerical value of heatmap FIG. 6C (timepoint 72): 0.2743 | sp|P16810|IR12_HCMVA (P16810) protein, numerical value of heatmap FIG. 6C (timepoint 72): 0.6875 | DUT (P16824) protein, numerical value of heatmap FIG. 6C (timepoint 96): 0.7823 | TRM3 (P16732) protein, numerical value of heatmap FIG. 6C (timepoint 96): 0.7025 | TRX1 (P16783) protein, numerical value of heatmap FIG. 6C (timepoint 96): 0.8409 | TRX2 (P16728) protein, numerical value of heatmap FIG. 6C (timepoint 96): 0.8413 | UL24 (P16760) protein, numerical value of heatmap FIG. 6C (timepoint 96): 0.7085 | UL40 (P16780) protein, numerical value of heatmap FIG. 6C (timepoint 96): 0.7467 | UL47 (P16784) protein, numerical value of heatmap FIG. 6C (timepoint 96): 0.7604 | UL69 (P16749) protein, numerical value of heatmap FIG. 6C (timepoint 96): 0.9032 | UL70 (P17149) protein, numerical value of heatmap FIG. 6C (timepoint 96): 0.8327 | UL83 (P06725) protein, numerical value of heatmap FIG. 6C (timepoint 96): 1.027 | UL132 (P69338) protein, numerical value of heatmap FIG. 6C (timepoint 96): 0.6887 | US15 (P09718) protein, numerical value of heatmap FIG. 6C (timepoint 96): 0.6108 | sp|P16808|IR10_HCMVA (P16808) protein, numerical value of heatmap FIG. 6C (timepoint 96): 0.6859 | sp|P16810|IR12_HCMVA (P16810) protein, numerical value of heatmap FIG. 6C (timepoint 96): 0.5726 | DUT (P16824) protein, numerical value of heatmap FIG. 6C (timepoint 120): 1.034 | TRM3 (P16732) protein, numerical value of heatmap FIG. 6C (timepoint 120): 0.9855 | TRX1 (P16783) protein, numerical value of heatmap FIG. 6C (timepoint 120): 1.114 | TRX2 (P16728) protein, numerical value of heatmap FIG. 6C (timepoint 120): 1.493 | UL24 (P16760) protein, numerical value of heatmap FIG. 6C (timepoint 120): 1.171 | UL40 (P16780) protein, numerical value of heatmap FIG. 6C (timepoint 120): 0.9491 | UL47 (P16784) protein, numerical value of heatmap FIG. 6C (timepoint 120): 0.9878 | UL49 (P16786) protein, numerical value of heatmap FIG. 6C (timepoint 120): 0.6463 | UL69 (P16749) protein, numerical value of heatmap FIG. 6C (timepoint 120): 1.467 | UL70 (P17149) protein, numerical value of heatmap FIG. 6C (timepoint 120): 1.255 | UL83 (P06725) protein, numerical value of heatmap FIG. 6C (timepoint 120): 1.677 | UL132 (P69338) protein, numerical value of heatmap FIG. 6C (timepoint 120): 0.8677 | US15 (P09718) protein, numerical value of heatmap FIG. 6C (timepoint 120): 0.4974 | sp|P16808|IR10_HCMVA (P16808) protein, numerical value of heatmap FIG. 6C (timepoint 120): 0.9054 | sp|P16810|IR12_HCMVA (P16810) protein, numerical value of heatmap FIG. 6C (timepoint 120): 0.762 | levels of HCMV IE and E proteins (early time points): decreased levels
